How the values were obtained:
[1] = system: HEK293T cells; test: LC-MS metabolite quantification in HEK293T cells; format: cell-based; conditions: 10 uM, 1 hour
Experimental: HEK293T cells were grown to full confluence and media was exchanged with complete DMEM media supplemented with 10% dialyzed fetal bovine serum. Three replicate plates per group were treated with 10 uM MBE1.5 or control DMSO for 1 hour followed by organic extraction with 40:40:20 methanol:acetonitrile:water w/0.5% formic acid (ice cold). Plates were immediately transferred to ice and incubated for 5 minutes then 50 ul 15% NH4HCO3 was added. Cells lysates were scraped and centrifuged at 15000 RCF. Supernatants were then analyzed via LC-MS to quantify various metabolites using standard metabolomic protocols.

[2] = system: HCT116 cells; test: HCT116 left ventricle injection metastasis xenograft; format: in vivo, mouse; conditions: 50 mg/kg subcutaneously every day, paclitaxel 25 mg/kg every three days
Experimental: In another xenograft experiment, mice were injected HCT116 cells via left ventricle injection and monitored with BLI on a weekly basis during the experiment. MBE1.5 or vehicle control were injected subcutaneously every day following injection at 50 mg/kg. At day 7 following injection, paclitaxel was dosed at 25 mg/kg every three days for a total of 6 injections. N=10 mice per group.

[3] = system: Sum-159-M1a-Aldh 1a3 cells; test: Sum-159-M1a-Aldh1a3 tail-vein lung metastasis xenograft; format: in vivo, mouse; conditions: 25 mg/kg daily, 12 days, with paclitaxel 12.5 mg/kg every other day
Experimental: In another xenograft experiment, mice were injected with Sum-159-M1a-Aldh 1a3 cells via tail-vein injection, and were randomized following injection. Mice were treated with MBE1.5 (25 mg/kg daily) or vehicle, and paclitaxel (12.5 mg/kg every other day) for twelve days. Lung metastasis progression was tracked by intravital bioluminescence.

[4] = system: SUM 159-M1-p44 cells; test: SUM 159-M1-p44 tail-vein lung metastasis xenograft; format: in vivo, mouse; conditions: 50 mg/kg with 25 mg/kg paclitaxel on days 17, 19 and 21
Experimental: In another xenograft experiment, mice were injected with SUM 159-M1-p44 cells via tail-vein injection, as described above, and randomized following injection. Metastatic burden was imaged on day 16 via intravital imaging. Mice were then treated with paclitaxel (25 mg/kg) and either vehicle or MBE1.5 (50 mg/kg) on days 17, 19 and 21. Lung metastatic burden was then imaged on day 22. Signals were normalized to day 16.

[5] = system: MDA-MB-468 cells; test: MDA-MB-468 mammary fat pad primary tumor xenograft; format: in vivo, mouse; conditions: 25 mg/kg daily, 12 days
Experimental: In yet another xenograft experiment, mice were injected with MDA-MB-468 cells via mammary fat pad, and were randomized following injection. […] Primary tumor measurements were taken by caliper between each treatment group.

[6] = molecular target: T1, ALDH1a3 (Mus musculus, UniProt Q9JHW9); test: ALDEFLUOR assay on pancreatic cells from diabetic and lean mice; format: cell-based; conditions: 10 μM; diabetic vs healthy mice
T1 construct: from tissue; host or cells: pancreatic cells from C57/BL6 mice (diet-induced diabetic and lean)
T1 sequence (Q9JHW9 1-512): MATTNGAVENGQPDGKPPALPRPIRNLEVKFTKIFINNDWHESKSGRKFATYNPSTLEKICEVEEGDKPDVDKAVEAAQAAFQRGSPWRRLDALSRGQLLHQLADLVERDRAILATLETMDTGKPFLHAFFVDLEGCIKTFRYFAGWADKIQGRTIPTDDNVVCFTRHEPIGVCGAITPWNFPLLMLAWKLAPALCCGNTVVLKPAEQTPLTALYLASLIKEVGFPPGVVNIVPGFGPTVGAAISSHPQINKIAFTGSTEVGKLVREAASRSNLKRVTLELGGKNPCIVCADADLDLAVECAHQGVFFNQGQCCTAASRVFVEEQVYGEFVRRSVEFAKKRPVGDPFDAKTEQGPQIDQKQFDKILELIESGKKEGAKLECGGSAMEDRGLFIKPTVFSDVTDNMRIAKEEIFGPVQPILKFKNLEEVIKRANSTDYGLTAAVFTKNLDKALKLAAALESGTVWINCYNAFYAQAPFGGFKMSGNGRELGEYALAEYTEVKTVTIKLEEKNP
Experimental: In the ALDEFLUOR™ assay used in this example, 14 month-old C57/BL6 high fat diet-induced severe obese/diabetic mice and 3 month-old lean C57/B16 mice were euthanized and pancreatic cells were extracted with 1 mg/mL Collagenase 1 digestion in PBS for 1 hour at 37 C. Single cell suspensions were obtained by filtration through 40 μm cell sieves. Cells were washed by two sequential centrifugations and resuspension in PBS.
(§1) Cells were counted, centrifuged and resuspended at 1,000,000 cells/mL in ALDEFLUOR™ buffer (Stemcell Technologies). ALDEFLUOR™ substrate (Stemcell Technologies, 1:200) and test compound (MBE 1.5 at 10 μM or 1 mM DEAB were added to cell suspension and incubated at 37° C. for 45 minutes with vortexing every 15 minutes. Cells were centrifuged and resuspended in ALDEFLUOR™ buffer with DAPI at 5 μg/mL. Samples were analyzed with the BD LSR2 flow cytometry platform.
(§2) Gating for background fluorescence was performed using 1 millimolar DEAB as a negative control.

[7] = male, CD-1/C57BL/6, mouse, in vivo
[8] = molecular target: T2, ALDH1a3 (Homo sapiens, UniProt P47895); test: ALDEFLUOR assay in SUM159-M1a-Aldh1a3 cells; format: cell-based; parameters: lentiviral vectors containing either the vector backbone or full-length human Aldh1a3; expressed in transfected cells; host or cells: SUM159-M1a human breast cancer cells, lentiviral pLex vector
T2 sequence (P47895 1-512): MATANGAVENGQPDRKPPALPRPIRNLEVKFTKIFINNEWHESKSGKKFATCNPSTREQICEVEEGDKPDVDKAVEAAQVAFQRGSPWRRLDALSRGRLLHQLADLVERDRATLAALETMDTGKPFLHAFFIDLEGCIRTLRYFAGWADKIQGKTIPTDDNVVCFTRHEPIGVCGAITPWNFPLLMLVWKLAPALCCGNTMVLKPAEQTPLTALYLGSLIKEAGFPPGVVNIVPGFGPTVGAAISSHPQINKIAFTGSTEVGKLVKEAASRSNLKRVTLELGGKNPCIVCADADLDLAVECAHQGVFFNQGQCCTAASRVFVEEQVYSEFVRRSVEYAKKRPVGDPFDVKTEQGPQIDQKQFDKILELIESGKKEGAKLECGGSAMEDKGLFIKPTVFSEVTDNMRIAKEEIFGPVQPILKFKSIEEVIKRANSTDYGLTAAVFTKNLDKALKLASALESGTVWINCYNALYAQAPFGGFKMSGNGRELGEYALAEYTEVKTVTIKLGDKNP
Experimental: as §1, with “compound” for “compound (MBE 1.5 at 10 μM”, “platform. Gating was performed using DEAB as a negative control.” for “platform.”
as §2
The [inh-min]threshold was set at the lower bound of two standard deviations of control samples, while the IC50 threshold was set at 50% of the average of control samples.
An ALDEFLUOR™ assay was also used to assess the relative activity of several compounds described herein against SUM159-M1a-Aldh1a3 cells.

[9] = in vivo; conditions: male, CD-1/C57BL/6, mouse
[10] = with paclitaxel 12.5 mg/kg every other day

For `CCc1ccccc1C(=O)Nc1cc2c(cc1F)NC(=O)CC2` [Compound 4, 2-ethyl-N-(7-fluoro-2-oxo-3,4-dihydro-1H-quinolin-6-yl)benzamide], the “NADH (LC-MS)” value [1] was “depletion of NADH”, the “adipate semialdehyde (LC-MS)” value [1] was “increases in adipate semialdehyde” and the “colorectal cancer metastasis (BLI)” value [2] was “slows colorectal cancer metastasis”. For the same compound, the survival [3] was “extended survival in mice with late-stage established breast cancer lung metastasis”, the “lung metastatic burden (BLI)” value [4] was “caused regression of established metastatic disease” and the tumors completely eliminated ([5]; n=6, with paclitaxel) was “tumors of two mice in the MBE1.5 treatment group were completely eliminated”. For the same compound, the “gross toxicity (body mass)” value [5, 10] was “no gross toxicity”, the primary tumor volume [5, 10] was “caused regression of primary breast tumors” and the “percentage of ALDEFLUOR-positive pancreatic islet cells” value [6] was “high-affinity compound for the inhibition of ALDH1a3 activity”. The “time plasma concentrations exceed 5-fold the IC50” value [7] was greater than 10 h, the “inhibition of ALDH1a3 activity (percentage of ALDEFLUOR-positive cells)” value ([8]; 100 nM, FIG. 6A) was “high-affinity compounds for the inhibition of ALDH1a3 activity” and the “inhibitory activity detected at concentrations as low as” value ([8]; SUM 159-M1a-Aldh1a3 cells, FIG. 6B) was 2 nM. The bioavailability [9] was 62.5%, the half-life ([9]; iv, 1 mg/kg) was 1.22 h and the half-life ([9]; po, 10 mg/kg) was 1.7 h.

Reference: patent publication US20230128402A1 (The Trustees of Princeton University, priority 2020, published 2023)
